In patent US5846936A, “Growth hormone releasing factor analogs” (Roche Vitamins Inc., priority 1995, dated 1998):
Where a SMILES comes first, the peptide text is derived from it. [ ]: non-standard residue; d: D form. The star is where a group is joined. Desaminotyrosyl = O=C(CCc1ccc(O)cc1)*

Test system: rat pituitary cells
Test: not given
Assay type: cell-based
Conditions: not given
Protocol: The biological activity of the novel peptides were compared with that of a synthetic standard of the natural sequence of GRF(1-44)-NH2 (SEQ ID NO: 1-NH2) which was isolated from a human pancreatic tumor of an individual suffering from acromegaly (Salk Institute standard hp-GRF-NH2 (NL-A-10)). The assay for biological activity, which is based on the ability to stimulate production of growth hormone in rat pituitary cells in tissue culture, was performed in the following manner. Pituitaries from 30-40 male Sprague-Dawley rats (175 g) were removed aseptically after decapitation. The anterior lobes were collected, washed 3 times in sterile Hepes buffer (0.025M)(pH 7.35) and dispersed at 37° C. in 20-30 ml Hepes buffer (pH 7.35) containing collagenase (4 mg per ml) and Dispase (Protease grande II, 2 mg per ml). After gentle 80 min. vortexing and trituration by Pasteur pipette, the dispersed cells were separated by centrifugation (150×g, 4 min.) and re-suspended in Hepes buffer containing neuraminidase (4 mg/ml), and […] ethylenediaminetetraacetic acid (EDTA) disodium salt pH 7.35, for 10 min. The cells were washed twice with plating medium and plated on multiwell-plates (1.5×10^5 cells per ml) using the following defined medium: F-12/DMEM/BGJ(6:3:1) (Gibco: 430-1700/430-1600/320-2591) with 2 g BSA/L., 2.38 g Hepes/L.,50 mg Gentamycin/L (Schering Co.). The medium in each well was supplemented either with the novel peptide or natural GRF(1-44)-NH2 (SEQ ID NO: 1-NH2) at concentrations ranging from 3.1 to 200 fmol. per ml. of medium. Control wells contained no supplement. Plating was done with this medium added with 2% fetal calf serum to ensure rapid fixation of the cells. On the fourth day the cells were washed twice with the defined medium without fetal calf serum. Finally […] of defined medium was added to each well plus […] of the same medium containing each individual treatment, in triplicate. After 3 hours of incubation the medium was collected and diluted as required to conduct radioimmunoassay (RIA) for rat growth hormone. RIAs were conducted using Sinha's anti-murine GH immune serum and procedures according to the National Pituitary Agency using protein A to precipitate antibody antigen complex.

First: CC[C@H](C)[C@H](NC(=O)[C@H](C)NC(=O)[C@H](CC(=O)O)NC(=O)[C@H](C)NC(=O)[C@@H](N)Cc1ccc(O)cc1)C(=O)N[C@@H](Cc1ccccc1)C(=O)N[C@H](C(=O)N[C@@H](CC(N)=O)C(=O)N[C@@H](CO)C(=O)N[C@@H](Cc1ccc(O)cc1)C(=O)N[C@@H](CCCNC(=N)N)C(=O)N[C@@H](CCCCN)C(=O)N[C@H](C(=O)N[C@@H](CC(C)C)C(=O)NCC(=O)N[C@@H](CCC(N)=O)C(=O)N[C@@H](CC(C)C)C(=O)N[C@@H](CO)C(=O)N[C@@H](C)C(=O)N[C@@H](CCCNC(=N)N)C(=O)N[C@@H](CCCCN)C(=O)N[C@@H](CC(C)C)C(=O)N[C@@H](CC(C)C)C(=O)N[C@@H](CCC(N)=O)C(=O)N[C@@H](CC(=O)O)C(=O)N[C@H](C(=O)N[C@@H](CCSC)C(=O)N[C@@H](CO)C(=O)N[C@@H](CCCNC(=N)N)C(=O)N[C@@H](CCC(N)=O)C(=O)N[C@@H](CCC(N)=O)C(=O)NCC(=O)N[C@@H](CCC(=O)O)C(=O)N[C@@H](CO)C(=O)N[C@@H](CC(N)=O)C(=O)N[C@@H](CCC(N)=O)C(=O)N[C@@H](CCC(=O)O)C(=O)N[C@@H](CCCNC(=N)N)C(=O)NCC(=O)N[C@@H](C)C(=O)N[C@@H](CCCNC(=N)N)C(=O)N[C@@H](C)C(=O)N[C@@H](CCCNC(=N)N)C(=O)N[C@@H](CC(C)C)C(N)=O)[C@@H](C)CC)C(C)C)[C@@H](C)O [SEQ ID NO: 1-NH2, GRF(1-44)-NH2, reference compound]
Second: CC[C@H](C)[C@H](NC(=O)[C@H](C)NC(=O)[C@H](CC(=O)O)NC(=O)[C@@H](C)NC(=O)[C@@H](N)Cc1c[nH]cn1)C(=O)N[C@@H](Cc1ccccc1)C(=O)N[C@H](C(=O)N[C@@H](CCC(N)=O)C(=O)N[C@@H](CO)C(=O)N[C@@H](Cc1ccc(O)cc1)C(=O)N[C@@H](CCCNC(=N)N)C(=O)N[C@@H](CCCCN)C(=O)N[C@H](C(=O)N[C@@H](CC(C)C)C(=O)N[C@@H](C)C(=O)N[C@@H](CCC(N)=O)C(=O)N[C@@H](CC(C)C)C(=O)N[C@@H](CO)C(=O)N[C@@H](C)C(=O)N[C@@H](CCCNC(=N)N)C(=O)N[C@@H](CCCCN)C(=O)N[C@@H](CC(C)C)C(=O)N[C@@H](CC(C)C)C(=O)N[C@@H](CCC(N)=O)C(=O)N[C@@H](CC(=O)O)C(=O)N[C@H](C(=O)N[C@@H](CC(C)C)C(=O)N[C@@H](CO)C(=O)N[C@@H](CCCNC(=N)N)C(=O)N[C@@H](CCC(N)=O)C(=O)N[C@@H](CCC(N)=O)C(=O)NCC(=O)O)[C@@H](C)CC)C(C)C)[C@@H](C)O [SEQ ID NO: 17-OH] (H-H[dA]DAIFTQSYRKVLAQLSARKLLQDILSRQQG-OH)
The “Potency of GRF Analogs Relative to GRF(1-44)-NH2 (SEQ ID NO: 1-NH2)” value of the first is lower: 1.00 for the first, 3.23 for the second.

Going from `CC[C@H](C)[C@H](NC(=O)[C@H](C)NC(=O)[C@H](CC(=O)O)NC(=O)[C@@H](C)NC(=O)CCc1ccc(O)cc1)C(=O)N[C@@H](Cc1ccccc1)C(=O)N[C@H](C(=O)N[C@H](C(=O)N[C@@H](CO)C(=O)N[C@@H](Cc1ccc(O)cc1)C(=O)N[C@@H](CCCNC(=N)N)C(=O)N[C@@H](CCCCN)C(=O)N[C@H](C(=O)N[C@@H](CC(C)C)C(=O)N[C@@H](C)C(=O)N[C@@H](CCC(N)=O)C(=O)N[C@@H](CC(C)C)C(=O)N[C@@H](CO)C(=O)N[C@@H](C)C(=O)N[C@@H](CCCNC(=N)N)C(=O)N[C@@H](CCCCN)C(=O)N[C@@H](CC(C)C)C(=O)N[C@@H](CC(C)C)C(=O)N[C@@H](CCC(N)=O)C(=O)N[C@@H](CC(=O)O)C(=O)N[C@H](C(=O)N[C@@H](CCSC)C(=O)N[C@@H](CO)C(=O)N[C@@H](CCCNC(=N)N)C(N)=O)[C@@H](C)CC)C(C)C)[C@@H](C)O)[C@@H](C)O` [SEQ ID NO: 8-NH2] (Desaminotyrosyl-[dA]DAIFTTSYRKVLAQLSARKLLQDIMSR-NH2) to `CC[C@H](C)[C@H](NC(=O)[C@H](C)NC(=O)[C@H](CC(=O)O)NC(=O)[C@@H](C)NC(=O)CCc1ccc(O)cc1)C(=O)N[C@@H](Cc1ccccc1)C(=O)N[C@H](C(=O)N[C@@H](CO)C(=O)N[C@@H](CO)C(=O)N[C@@H](Cc1ccc(O)cc1)C(=O)N[C@@H](CCCNC(=N)N)C(=O)N[C@@H](CCCCN)C(=O)N[C@H](C(=O)N[C@@H](CC(C)C)C(=O)N[C@@H](C)C(=O)N[C@@H](CCC(N)=O)C(=O)N[C@@H](CC(C)C)C(=O)N[C@@H](CO)C(=O)N[C@@H](C)C(=O)N[C@@H](CCCNC(=N)N)C(=O)N[C@@H](CCCCN)C(=O)N[C@@H](CC(C)C)C(=O)N[C@@H](CC(C)C)C(=O)N[C@@H](CCC(N)=O)C(=O)N[C@@H](CC(=O)O)C(=O)N[C@H](C(=O)N[C@@H](CCSC)C(=O)N[C@@H](CO)C(=O)N[C@@H](CCCNC(=N)N)C(N)=O)[C@@H](C)CC)C(C)C)[C@@H](C)O` [SEQ ID NO: 9-NH2] (Desaminotyrosyl-[dA]DAIFTSSYRKVLAQLSARKLLQDIMSR-NH2), the “Potency of GRF Analogs Relative to GRF(1-44)-NH2 (SEQ ID NO: 1-NH2)” value falls from 3.77 to 3.55.

In the case of `CC[C@H](C)[C@H](NC(=O)[C@H](C)NC(=O)[C@H](CC(=O)O)NC(=O)[C@@H](C)NC(=O)CCc1ccc(O)cc1)C(=O)N[C@@H](Cc1ccccc1)C(=O)N[C@H](C(=O)N[C@@H](CCC(N)=O)C(=O)N[C@@H](CO)C(=O)N[C@@H](Cc1ccc(O)cc1)C(=O)N[C@@H](CCCNC(=N)N)C(=O)N[C@@H](CCCCN)C(=O)N[C@H](C(=O)N[C@@H](CC(C)C)C(=O)N[C@@H](C)C(=O)N[C@@H](CCC(N)=O)C(=O)N[C@@H](CC(C)C)C(=O)N[C@@H](CO)C(=O)N[C@@H](C)C(=O)N[C@@H](CCCNC(=N)N)C(=O)N[C@@H](CCCCN)C(=O)N[C@@H](CC(C)C)C(=O)N[C@@H](CC(C)C)C(=O)N[C@@H](CCC(N)=O)C(=O)N[C@@H](CC(=O)O)C(=O)N[C@H](C(=O)N[C@@H](CCSC)C(=O)N[C@@H](CO)C(=O)N[C@@H](CCCNC(=N)N)C(N)=O)[C@@H](C)CC)C(C)C)[C@@H](C)O` [SEQ ID NO: 10-NH2] (Desaminotyrosyl-[dA]DAIFTQSYRKVLAQLSARKLLQDIMSR-NH2), the “Potency of GRF Analogs Relative to GRF(1-44)-NH2 (SEQ ID NO: 1-NH2)” value was 4.57.

Test system: not listed separately
Test: Half-life stability of GRF analogs in aqueous solution by reverse phase HPLC
Assay type: physicochemical
Conditions: aqueous buffer pH 7.40 (0.25M Na2HPO4/H3PO4, 1.0 mM NaN3), 37° C., 0.15 mg/mL
Protocol: Half-life stability of GRF analogs in aqueous solution was determined by reverse phase HPLC at 37° C. GRF analogs were prepared as described above. GRF analogs were dissolved in […] of H2 O and then taken up in 1.0 mL of buffer solution (pH 7.40) containing 0.25M Na2 HPO4 /H3 PO4 and 1.0 mM NaN3. The concentration of the GRF analogs was 0.15 mg/mL. The HPLC system was a Laboratory Data Control (LDC) HPLC with a Waters C-18 column (3.9×300 mm, 10μ). The detector was a LDC Spectromonitor III and the gradient delivery system was a Constametric II. Mobile phase--(A) 0.025% TFA in H2 O, (B) 0.025% TFA in acetonitrile. Gradient was 0-37% (B) in 15 minutes for SEQ ID NO: 8-NH2 where Xaa^1 is desNH2 Tyr and Xaa^2 is D-Ala and SEQ ID NO: 9-NH2 where Xaa^1 is desNH2 Tyr and Xaa^2 is D-Ala; 0-35% (B) in 15 minutes for SEQ ID NO: 35-NH2 where Xaa^1 is desNH2 Tyr and Xaa^2 is D-Ala; and 0-36% (B) in 15 minutes for SEQ ID NO: 10-NH2 where Xaa^1 is desNH2 Tyr and Xaa^2 is D-Ala. Flow rate for all gradients was 2 ml/minute. Detection was at 206 nm using a UV detector.

`CC[C@H](C)[C@H](NC(=O)[C@H](C)NC(=O)[C@H](CC(=O)O)NC(=O)[C@@H](C)NC(=O)CCc1ccc(O)cc1)C(=O)N[C@@H](Cc1ccccc1)C(=O)N[C@H](C(=O)N[C@H](C(=O)N[C@@H](CO)C(=O)N[C@@H](Cc1ccc(O)cc1)C(=O)N[C@@H](CCCNC(=N)N)C(=O)N[C@@H](CCCCN)C(=O)N[C@H](C(=O)N[C@@H](CC(C)C)C(=O)N[C@@H](C)C(=O)N[C@@H](CCC(N)=O)C(=O)N[C@@H](CC(C)C)C(=O)N[C@@H](CO)C(=O)N[C@@H](C)C(=O)N[C@@H](CCCNC(=N)N)C(=O)N[C@@H](CCCCN)C(=O)N[C@@H](CC(C)C)C(=O)N[C@@H](CC(C)C)C(=O)N[C@@H](CCC(N)=O)C(=O)N[C@@H](CC(=O)O)C(=O)N[C@H](C(=O)N[C@@H](CCSC)C(=O)N[C@@H](CO)C(=O)N[C@@H](CCCNC(=N)N)C(N)=O)[C@@H](C)CC)C(C)C)[C@@H](C)O)[C@@H](C)O` [SEQ ID NO: 8-NH2] (Desaminotyrosyl-[dA]DAIFTTSYRKVLAQLSARKLLQDIMSR-NH2) and `CC[C@H](C)[C@H](NC(=O)[C@H](C)NC(=O)[C@H](CC(=O)O)NC(=O)[C@@H](C)NC(=O)CCc1ccc(O)cc1)C(=O)N[C@@H](Cc1ccccc1)C(=O)N[C@H](C(=O)N[C@@H](CCC(N)=O)C(=O)N[C@@H](CO)C(=O)N[C@@H](Cc1ccc(O)cc1)C(=O)N[C@@H](CCCNC(=N)N)C(=O)N[C@@H](CCCCN)C(=O)N[C@H](C(=O)N[C@@H](CC(C)C)C(=O)N[C@@H](C)C(=O)N[C@@H](CCC(N)=O)C(=O)N[C@@H](CC(C)C)C(=O)N[C@@H](CO)C(=O)N[C@@H](C)C(=O)N[C@@H](CCCNC(=N)N)C(=O)N[C@@H](CCCCN)C(=O)N[C@@H](CC(C)C)C(=O)N[C@@H](CC(C)C)C(=O)N[C@@H](CCC(N)=O)C(=O)N[C@@H](CC(=O)O)C(=O)N[C@H](C(=O)N[C@@H](CCSC)C(=O)N[C@@H](CO)C(=O)N[C@@H](CCCNC(=N)N)C(N)=O)[C@@H](C)CC)C(C)C)[C@@H](C)O` [SEQ ID NO: 10-NH2] (Desaminotyrosyl-[dA]DAIFTQSYRKVLAQLSARKLLQDIMSR-NH2) are within 1.5-fold of each other in “HALF-LIFE t(1/2)” value: 169 h for the first, 122 h for the second.
